The target of the experiment is T1, human GPR52 (Homo sapiens, UniProt Q9Y2T5).
T1 construct: expressed in transfected cells; host or cells: CHO(dhfr-) cells
The experiment can be described thus: Increase of intracellular cAMP concentration in human GPR52-expressing CHO cell (AlphaScreen cAMP assay). The conditions noted are these: human GPR52-expressing CHO(dhfr-) cells; for activity at 1 µM: CHO, 1µM test compound, 100% = cAMP with 1 µM Reference Example 79, 0% = DMSO, 37°C, 30 min, read-out: GPR52 agonist activity (%); for EC50: concentration of the test compound at which it shows 50% activity, read-out: GPR52 agonist activity EC50. The class given is cell-based. How it is done:
Increase of intracellular cAMP concentration in human GPR52-expressing CHO cell
Using OptiPlate-384 (PerkinElmer Inc.), 1×10^4 human GPR52-expressing CHO(dhfr-) cells were incubated together with various concentration(10^-5µM - 10µm) of a test compound in an assay buffer (30 µL, HBSS (containing Ca^2+ and Mg^2+), 0.5% BSA, 100 µM IBMX, 100 µM Ro20-1724, 5 mM HEPES (pH 7.55)) at 37°C for 30 min. Thereafter, according to the protocol of AlphaScreen CAMP Assay Kit (PerkinElmer Inc.), the intracellular cAMP concentration was measured by EnVision (PerkinElmer Inc.). The GPR52 agonist activity was calculated, assuming the intracellular cAMP concentration in the presence of […] N-(2-hydroxyethyl)-3-[2-[3-(trifluoromethyl)benzyl]-1-benzofuran-4-yl]benzamide (Reference Example 79) to be 100% and assuming the intracellular cAMP concentration when DMSO was added instead of the test compound to be 0%.

From EP2518054A1, “AMIDE COMPOUND” (Takeda Pharmaceutical Company Limited, priority 2009, dated 2011) come the findings set out here.

Structures are written as SMILES.

T1 sequence (Q9Y2T5 whole entry): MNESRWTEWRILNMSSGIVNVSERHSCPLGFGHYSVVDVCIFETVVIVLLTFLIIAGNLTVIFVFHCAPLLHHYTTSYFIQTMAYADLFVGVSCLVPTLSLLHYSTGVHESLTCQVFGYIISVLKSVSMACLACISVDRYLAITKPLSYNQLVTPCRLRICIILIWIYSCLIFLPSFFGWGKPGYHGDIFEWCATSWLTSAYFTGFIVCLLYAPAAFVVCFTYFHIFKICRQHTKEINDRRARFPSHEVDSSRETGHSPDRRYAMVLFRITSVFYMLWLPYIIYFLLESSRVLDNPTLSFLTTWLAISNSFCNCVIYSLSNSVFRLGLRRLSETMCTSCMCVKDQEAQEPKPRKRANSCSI

`Cc1nn(-c2cccc3cc(Cc4cccc(C(F)(F)F)c4)sc23)c(CO)c1C(=O)NCC(N)=O` [Example 63, N-(2-amino-2-oxoethyl)-5-(hydroxymethyl)-3-methyl-1-[2-[3-(trifluoromethyl)benzyl]-1-benzothiophen-7-yl]-1H-pyrazole-4-carboxamide]: the activity at 1 µM came to 94%.
On to `Cc1nn(-c2cccc3sc(Cc4cccc(C(F)(F)F)c4)cc23)c(C)c1C(=O)NCC(N)=O` [Example 105, N-(2-amino-2-oxoethyl)-3,5-dimethyl-1-[2-[3-(trifluoromethyl)benzyl]-1-benzothiophen-4-yl]-1H-pyrazole-4-carboxamide], for which the activity at 1 µM stood at 94%.
As usually defined, the EC50 is the concentration at which the effect is half-maximal. Regarding `Cc1nn(-c2cccc3cc(Cc4cccc(C(F)(F)F)c4)sc23)c(CO)c1C(N)=O` [Example 64, 5-(hydroxymethyl)-3-methyl-1-[2-[3-(trifluoromethyl)benzyl]-1-benzothiophen-7-yl]-1H-pyrazole-4-carboxamide], the activity at 1 µM worked out at 97% and the EC50 worked out at 18 nM.
For `Cc1nn(-c2cccc3cc(Cc4cc(F)cc(Cl)c4)sc23)c(C)c1C(=O)NCCO` [Example 56, 1-[2-(3-chloro-5-fluorobenzyl)-1-benzothiophen-7-yl]-N-(2-hydroxyethyl)-3,5-dimethyl-1H-pyrazole-4-carboxamide], the activity at 1 µM stood at 105% and the EC50 worked out at 6.9 nM.
Turning to `Cc1cccc(Cc2cc3cccc(-n4nc(C)c(C(=O)NCC(N)=O)c4C)c3s2)c1` [Example 93, N-(2-amino-2-oxoethyl)-3,5-dimethyl-1-[2-(3-methylbenzyl)-1-benzothiophen-7-yl]-1H-pyrazole-4-carboxamide], the activity at 1 µM came out at 70%.
Turning to `Cc1nn(-c2cccc3cc(Cc4cc(F)cc(F)c4)sc23)c(C)c1C(=O)NCCO` [Example 99, 1-[2-(3,5-difluorobenzyl)-1-benzothiophen-7-yl]-N-(2-hydroxyethyl)-3,5-dimethyl-1H-pyrazole-4-carboxamide], the activity at 1 µM amounted to 99% and the EC50 amounted to 13 nM.
For the compound `Cc1nn(-c2ccc(F)c3cc(Cc4cc(F)cc(Cl)c4)sc23)c(CO)c1C(N)=O` [Example 91, 1-[2-(3-chloro-5-fluorobenzyl)-4-fluoro-1-benzothiophen-7-yl]-5-(hydroxymethyl)-3-methyl-1H-pyrazole-4-carboxamide], the activity at 1 µM worked out at 99%.
On the same count and under the same terms, next, `Cc1nn(-c2cccc3oc(Cc4cccc(C(F)(F)F)c4)cc23)c(C)c1C(=O)NCC(N)=O` [Example 74, N-(2-amino-2-oxoethyl)-3,5-dimethyl-1-[2-[3-(trifluoromethyl)benzyl]-1-benzofuran-4-yl]-1H-pyrazole-4-carboxamide]: 98%; `Cc1nn(-c2cccc3cc(Cc4cccc(C(F)(F)F)c4)sc23)cc1C(=O)NCC(N)=O` [Example 16, N-(2-amino-2-oxoethyl)-3-methyl-1-[2-[3-(trifluoromethyl)benzyl]-1-benzothiophen-7-yl]-1H-pyrazole-4-carboxamide]: 94%; `Cc1nn(-c2ccc(F)c3cc(Cc4cc(F)cc(Cl)c4)sc23)c(C)c1C(=O)NCC(N)=O` [Example 59, N-(2-amino-2-oxoethyl)-1-[2-(3-chloro-5-fluorobenzyl)-4-fluoro-1-benzothiophen-7-yl]-3,5-dimethyl-1H-pyrazole-4-carboxamide]: 93%.
`Cc1nn(-c2cccc3nn(Cc4cc(F)cc(C(F)(F)F)c4)cc23)c(C)c1C(=O)NCCO` [Example 84, 1-[2-[3-fluoro-5-(trifluoromethyl)benzyl]-2H-indazol-4-yl]-N-(2-hydroxyethyl)-3,5-dimethyl-1H-pyrazole-4-carboxamide]: the activity at 1 µM was 105%.
As for `Cc1nn(-c2ccc(F)c3cc(Cc4cc(F)cc(Cl)c4)sc23)c(CO)c1C(=O)NCCO` [Example 90, 1-[2-(3-chloro-5-fluorobenzyl)-4-fluoro-1-benzothiophen-7-yl]-N-(2-hydroxyethyl)-5-(hydroxymethyl)-3-methyl-1H-pyrazole-4-carboxamide], the activity at 1 µM was determined as 104% and the EC50 amounted to 14 nM.
